Tests used:
[1] = target: T1, Btk enzyme (His-tagged, full-length) (Homo sapiens, UniProt Q06187); test: Bruton's Tyrosine Kinase (Btk) Inhibition Assay (33P filtration capture); assay type: biochemical; conditions: Bruton's tyrosine kinase Assay (Example 34), 100 μM ATP
T1 construct: 5-10 nM Btk enzyme (His-tagged, full-length); His
Text: Bruton's Tyrosine Kinase (Btk) Inhibition Assay
The assay is a capture of radioactive ^33P phosphorylated product through filtration. The interactions of Btk, biotinylated SH2 peptide substrate (Src homology), and ATP lead to phosphorylation of the peptide substrate. Biotinylated product is bound streptavidin sepharose beads. All bound, radiolabeled products are detected by scintillation counter.
Plates assayed are 96-well polypropylene (Greiner) and 96-well 1.2 μm hydrophilic PVDF filter plates (Millipore).
IC50 determinations are calculated from 10 data points per compound utilizing data produced from a standard 96-well plate assay template. One control compound and seven unknown inhibitors were tested on each plate and each plate was run twice. […] The control compound was staurosporine. Background was counted in the absence of peptide substrate. Total activity was determined in the presence of peptide substrate. The following protocol was used to determine Btk inhibition.
1) Sample preparation: The test compounds were diluted at half-log increments in assay buffer (imidazole, glycerol-2-phosphate, EGTA, MnCl2, MgCl2, BSA).
2) Bead preparation • a.) rinse beads by centrifuging at 500 g • b.) reconstitute the beads with PBS and EDTA to produce a 20% bead slurry
3) Pre-incubate reaction mix without substrate (assay buffer, DTT, ATP, ^33P ATP) and mix with substrate (assay buffer, DTT, ATP, ^33P ATP, peptide substrate) 30° C. for 15 min.
4) To start assay, pre-incubate 10 μL Btk in enzyme buffer (imidazole, glycerol-2-phosphate, BSA) and 10 μL of test compounds for 10 min at RT.
5) Add 30 μL reaction mixture without or with substrate to Btk and compounds.
6) Incubate 50 μL total assay mix for 30 min at 30° C.
7) Transfer 40 μL of assay to 150 μL bead slurry in filter plate to stop reaction.
8) Wash filter plate after 30 min, with following steps • a. 3×250 μL NaCl • b. 3×250 μL NaCl containing 1% phosphoric acid • c. 1×250 μL H2O
9) Dry plate for 1 h at 65° C. or overnight at RT
10) Add 50 μL microscint-20 and count ^33P cpm on scintillation counter.
Calculate percent activity from raw data in cpm percent activity=(sample−bkg)/(total activity−bkg)×100
Calculate IC50 from percent activity, using one-site dose response sigmoidal model y=A+((B−A)/(1+((x/C)^D))))

T1 sequence (Q06187 whole entry): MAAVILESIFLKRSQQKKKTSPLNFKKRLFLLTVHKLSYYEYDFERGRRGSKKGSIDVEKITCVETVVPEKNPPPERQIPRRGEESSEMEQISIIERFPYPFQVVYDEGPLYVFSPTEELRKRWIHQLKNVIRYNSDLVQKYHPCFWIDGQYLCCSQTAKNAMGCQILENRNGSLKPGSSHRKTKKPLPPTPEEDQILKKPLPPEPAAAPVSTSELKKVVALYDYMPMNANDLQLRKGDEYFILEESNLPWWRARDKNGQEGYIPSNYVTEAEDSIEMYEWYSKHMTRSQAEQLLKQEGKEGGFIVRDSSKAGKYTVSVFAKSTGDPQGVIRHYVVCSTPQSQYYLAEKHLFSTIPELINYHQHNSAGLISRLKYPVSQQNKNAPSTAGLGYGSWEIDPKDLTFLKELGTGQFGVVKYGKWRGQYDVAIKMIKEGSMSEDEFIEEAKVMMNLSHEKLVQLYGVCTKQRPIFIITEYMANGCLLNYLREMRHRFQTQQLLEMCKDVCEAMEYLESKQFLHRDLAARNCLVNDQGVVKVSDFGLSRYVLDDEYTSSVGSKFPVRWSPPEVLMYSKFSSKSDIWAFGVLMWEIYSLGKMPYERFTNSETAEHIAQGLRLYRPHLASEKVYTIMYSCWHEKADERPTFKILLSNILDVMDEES

IC50 ([1]; Table II pyridinones) [nM] | melting point [°C] | IC50 ([1]; Table I pyridazinones) [nM] | SMILES
29 | 194 to 195 | – | Cc1c(NC(=O)c2ccc(C(C)(C)C)cc2)cccc1-c1cc(NC(=O)NCCCN(C)C)c(=O)n(C)c1 [II-22]
867 | 258 to 259 | – | Cc1c(NC(=O)c2ccc(C(C)(C)C)cc2)cccc1-c1cc(NC(=O)NCC(F)(F)F)c(=O)n(C)c1 [II-7]
1240 | 169 to 170 | – | Cc1c(NC(=O)c2ccc(C(C)(C)C)cc2)cccc1-c1cc(NC(=O)NCc2ccccc2)c(=O)n(C)c1 [II-9]
– | 262 to 264 | – | CNC(=O)Nc1cc(-c2cccc(NC(=O)c3ccc(C(C)(C)C)cc3)c2C)cn(C)c1=O [II-4, 4-tert-Butyl-N-{2-methyl-3-[1-methyl-5-(3-methyl-ureido)-6-oxo-1,6-dihydro-pyridin-3-yl]-phenyl}-benzamide]
4370 | 118 to 119 | – | CNC(=O)Nc1cc(-c2cccc(CC(=O)N3CC(OC(C)C)C3)c2)cn(C)c1=O [II-30]
– | 157 to 158 | 110 | Cc1c(NC(=O)c2ccc(C(C)(C)C)cc2)cccc1-c1cc(Nc2ccc(C(=O)N3CCOCC3)cc2)c(=O)n(C)n1 [Compound I-24]
666 | 264 to 265 | – | CNC(=O)Nc1cc(-c2cccc(NC(=O)N3Cc4ccccc4C3)c2C)cn(C)c1=O [II-17, 1,3-Dihydro-isoindole-2-carboxylic acid{2-methyl-3-[1-methyl-5-(3-methyl-ureido)-6-oxo-1,6-dihydro-pyridin-3-yl]-phenyl}-amide]
– | 138 to 139 | 6290 | Cn1nc(-c2cccc(CC(=O)NCCC(C)(C)C)c2)cc(Nc2ccc(C(=O)N3CCOCC3)cn2)c1=O [Compound I-43]
– | 231 to 232 | 2350 | Cn1nc(-c2cccc(CC(=O)N3CCC(C(C)(C)C)CC3)c2)cc(Nc2ccc(C(=O)N3CCOCC3)cn2)c1=O [Compound I-42]
– | 216 to 217 | 59 | COc1cc(C(C)(C)C)ccc1C(=O)Nc1cccc(-c2cc(Nc3ccc(C(=O)N4CCOCC4)cn3)c(=O)n(C)n2)c1 [Compound I-30]
1560 | 251 to 252 | – | CNC(=O)Nc1cc(-c2cccc(CC(=O)N3Cc4ccccc4C3)c2)cn(C)c1=O [II-45]
– | 211 to 213 | 249 | Cc1c(NC(=O)c2ccc(C(C)(C)C)cc2)cccc1-c1cc(Nc2ccnc(N3CCOCC3)n2)c(=O)n(C)n1 [Compound I-14]
– | 249 to 250 | 208 | Cc1c(NC(=O)c2ccc(C(C)(C)C)cc2)cccc1-c1cc(Nc2ccncn2)c(=O)n(C)n1 [Compound I-4]
– | 188 to 189 | 326 | Cc1c(NC(=O)c2ccc(C(C)(C)C)cc2)cccc1-c1cc(Nc2ccnc(OCCN(C)C)n2)c(=O)n(C)n1 [Compound I-18]
– | 287 to 288 | 101 | CNC(=O)Nc1cc(-c2cccc(NC(=O)c3ccc(C(C)(C)C)cc3)c2C)nn(C)c1=O [Compound I-23, 4-tert-Butyl-N-{2-methyl-3-[1-methyl-5-(3-methyl-ureido)-6-oxo-1,6-dihydro-pyridazin-3-yl]-phenyl}-benzamide]
– | 80 to 81 | 2200 | Cn1nc(-c2cccc(CC(=O)OCCOC(C)(C)C)c2)cc(Nc2ccc(C(=O)N3CCOCC3)cn2)c1=O [Compound I-36]
– | 209 to 210 | 6250 | CC(C)N1CCN(C(=O)Cc2cccc(-c3cc(Nc4ccc(C(=O)N5CCOCC5)cn4)c(=O)n(C)n3)c2)CC1 [Compound I-41]
– | 193 to 195 | 354 | Cc1c(NC(=O)c2ccc(C(C)(C)C)cc2)cccc1-c1cc(Nc2ccnc(N3CCCC3)n2)c(=O)n(C)n1 [Compound I-21]
– | 179 to 180 | 680 | Cn1nc(-c2cccc(CC(=O)N3Cc4ccccc4C3)c2)cc(Nc2ccc(C(=O)N3CCOCC3)cn2)c1=O [Compound I-40]

IC50 ([1]; Table II pyridinones) [nM] | melting point [°C] | IC50 ([1]; Table I pyridazinones) [nM] | SMILES
– | 224 to 225 | 51 | CSc1nccc(Nc2cc(-c3cccc(NC(=O)c4ccc(C(C)(C)C)cc4)c3C)nn(C)c2=O)n1 [Compound I-12]
– | 220 to 222 | 78 | Cc1c(NC(=O)c2ccc(C(C)(C)C)cc2)cccc1-c1cc(Nc2ccnc(N3CCN(C)CC3)n2)c(=O)n(C)n1 [Compound I-11]
– | – | 1720 | Cn1nc(-c2cccc(CC(=O)NCCC(O)C(C)(C)C)c2)cc(Nc2ccc(C(=O)N3CCOCC3)cn2)c1=O (stereo not drawn) [Compound I-29]
< 10 | – | – | Cn1cc(-c2cccc(NC(=O)c3ccc(C4(Cl)CC4)cc3)c2CO)cc(Nc2ccc(C(=O)N3CCOCC3)cn2)c1=O [II-75]
– | – | 1060 | Cc1c(NC(=O)c2ccc(C(C)(C)C)cc2)cccc1-c1cc(Nc2ccnc(S(C)(=O)=O)n2)c(=O)n(C)n1 [Compound I-13]
< 10 | – | – | Cn1cc(-c2cccc(NC(=O)c3ccc(S(F)(F)(F)(F)F)cc3)c2CO)cc(Nc2ccc(C(=O)N3CCOCC3)cn2)c1=O [II-89]
50 | – | – | Cn1cc(-c2cccc(NC(=O)c3ccc(C4(F)CC4)cc3)c2CO)cc(Nc2ccccn2)c1=O [II-64]
– | – | 160 | COC(=O)c1ccc(Nc2cc(-c3cccc(NC(=O)c4ccc(C(C)(C)C)cc4)c3C)nn(C)c2=O)nc1 [Compound I-9]
24 | – | – | COC(C)(C)c1ccc(C(=O)Nc2cccc(-c3cc(Nc4ccc(C(=O)N5CCOCC5)cn4)c(=O)n(C)c3)c2CO)cc1 [II-66]
– | – | 34 | Cc1c(NC(=O)c2ccc(N(C)C)cc2)cccc1-c1cc(Nc2ccc(C(=O)N3CCC(O)CC3)cn2)c(=O)n(C)n1 [Compound I-28, 4-Dimethylamino-N-(3-{5-[5-(4-hydroxy-piperidine-1-carbonyl)-pyridin-2-ylamino]-1-methyl-6-oxo-1,6-dihydro-pyridazin-3-yl}-2-methyl-phenyl)-benzamide]
– | – | < 10 | Cn1nc(-c2cccc(NC(=O)c3ccc(C4CC4)cc3)c2CO)cc(Nc2ccc(C(=O)N3CCOCC3)cn2)c1=O [Compound I-46]
71 | – | – | Cn1cc(-c2cccc(NC(=O)c3ccc(C(F)(C(F)(F)F)C(F)(F)F)cc3)c2CO)cc(Nc2ccc(C(=O)N3CCOCC3)cn2)c1=O [II-68]
< 10 | – | – | Cn1cc(-c2cccc(NC(=O)c3ccc(C4(C(F)F)CC4)cc3)c2CO)cc(Nc2ccc(C(=O)N3CCOCC3)cn2)c1=O [II-72, 4-(1-Difluoromethyl-cyclopropyl)-N-(2-hydroxymethyl-3-{1-methyl-5-[5-(morpholine-4-carbonyl)-pyridin-2-ylamino]-6-oxo-1,6-dihydro-pyridin-3-yl}-phenyl)-benzamide]
298 | – | – | Cn1cc(-c2cccc(NC(=O)c3ccc(C4CC4)cc3)c2CO)cc(Nc2ccc(=O)n(Cc3ccccc3)n2)c1=O [II-93]
60 | – | – | Cn1cc(-c2cccc(NC(=O)c3ccc(C4CC4)cc3)c2CO)cc(NC(=O)NCC2CCCO2)c1=O (stereo not drawn) [II-84]
310 | – | – | CNC(=O)Nc1cc(-c2cccc(NC(=O)c3ccc(N4CCCCC4)nc3)c2C)cn(C)c1=O [II-19]
< 10 | – | – | Cn1cc(-c2cccc(NC(=O)c3ccc(C(C)(C)C#N)cc3)c2CO)cc(Nc2ccc(C(=O)N3CCOCC3)cn2)c1=O [II-96]
50 | – | – | Cn1cc(-c2cccc(NC(=O)c3ccc(C(Cl)(Cl)Cl)cc3)c2CO)cc(Nc2ccc(C(=O)N3CCOCC3)cn2)c1=O [II-74]

— US7943618B2, “Btk protein kinase inhibitors” (Roche Palo Alto LLC, priority 2007, dated 2011)
